Data taken from PubChem BioAssay (NCI).
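Following 48 hours of exposure in 96-well plates, responses at five concentrations were used to interpolate endpoints linearly. Here, GI50 denotes the concentration required for 50% inhibition of growth. The concentration for full growth arrest is given as TGI.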

Experiments:
Assay in all cases: inhibition of tumour cell growth, NCI panel, 48 h
[1] = test system: NCI-H460 lung
[2] = test system: OVCAR-5 ovarian
[3] = test system: U251 CNS
[4] = test system: SK-MEL-2 melanoma
[5] = test system: A498 renal
[6] = test system: HS 578T breast
[7] = test system: HOP-92 NSCLC
[8] = test system: SR leukemia
[9] = test system: NCI-H226 lung
[10] = test system: NCI/ADR-RES ovarian
[11] = test system: KM12 colon
[12] = test system: SNB-75 CNS
[13] = test system: MCF7 breast
[14] = test system: NCI-H23 lung
[15] = test system: HL-60(TB) leukemia
[16] = test system: SK-OV-3 ovarian
[17] = test system: UO-31 renal
[18] = test system: HCT-15 colon
[19] = test system: SF-539 CNS
[20] = test system: IGROV1 ovarian
[21] = test system: SN12C renal
[22] = test system: CAKI-1 renal
[23] = test system: BT-549 breast
[24] = test system: MDA-MB-435
[25] = test system: MOLT-4 leukemia
[26] = test system: SK-MEL-5 melanoma
[27] = test system: COLO 205 colon
[28] = test system: T-47D breast
[29] = test system: 786-0 renal
[30] = test system: M14 melanoma
[31] = test system: SK-MEL-28 melanoma
[32] = test system: HT29 colon
[33] = test system: ACHN renal
[34] = test system: K-562 leukemia
[35] = test system: SF-295 CNS
[36] = test system: SNB-19 CNS
[37] = test system: UACC-257 melanoma
[38] = test system: MDA-MB-231 breast
[39] = test system: TK-10 renal
[40] = test system: CCRF-CEM leukemia
[41] = test system: NCI-H522 lung
[42] = test system: OVCAR-8 ovarian
[43] = test system: RPMI-8226 leukemia
[44] = test system: RXF 393 renal
[45] = test system: MALME-3M melanoma
[46] = test system: UACC-62 melanoma
[47] = test system: SW-620 colon
[48] = test system: DU-145 prostate
[49] = test system: HCT-116 colon
[50] = test system: PC-3 prostate
[51] = test system: EKVX NSCLC
[52] = test system: SF-268 CNS
[53] = test system: HCC-2998 colon
[54] = test system: HOP-62 NSCLC
[55] = test system: A549 NSCLC
[56] = test system: OVCAR-4 ovarian
[57] = test system: OVCAR-3 ovarian
[58] = test system: LOX IMVI melanoma

## Nc1ccccc1NC(=O)c1ccc(NC(=O)C/C=C/c2cccnc2)cc1
[1]
  GI50: 1.45 µM
  TGI: > 50 µM
[2]
  GI50: 0.803 µM
  TGI: > 50 µM
[3]
  GI50: 1.04 µM
  TGI: > 50 µM
[4]
  GI50: 2.39 µM
  TGI: > 50 µM
[5]
  GI50: 0.586 µM
  TGI: 2.29 µM
[6]
  GI50: 1.66 µM
  TGI: > 50 µM
[7]
  GI50: 0.341 µM
  TGI: 8.33 µM
[8]
  GI50: 0.382 µM
  TGI: > 50 µM
[9]
  GI50: 1.43 µM
  TGI: > 50 µM
[10]
  GI50: 3.23 µM
  TGI: > 50 µM
[11]
  GI50: 8.48 µM
  TGI: > 50 µM
[12]
  GI50: 1.26 µM
  TGI: > 50 µM
[13]
  GI50: 1.09 µM
  TGI: 8.32 µM
[14]
  GI50: 1.55 µM
  TGI: 26.6 µM
[15]
  GI50: 0.448 µM
  TGI: > 50 µM
[16]
  GI50: 2.4 µM
  TGI: > 50 µM
[17]
  GI50: 1.54 µM
  TGI: > 50 µM
[18]
  GI50: 1.32 µM
  TGI: > 50 µM
[19]
  GI50: 0.181 µM
  TGI: 26.4 µM
[20]
  GI50: 1.14 µM
  TGI: > 50 µM
[21]
  GI50: 0.32 µM
  TGI: > 50 µM
[22]
  GI50: 2.39 µM
  TGI: > 50 µM
[23]
  GI50: 1.17 µM
  TGI: 4.72 µM
[24]
  GI50: 1.39 µM
  TGI: 8.02 µM
[25]
  GI50: 1.05 µM
  TGI: > 50 µM
[26]
  GI50: 0.957 µM
  TGI: 1.91 µM
[27]
  GI50: 0.813 µM
  TGI: 7.1 µM
[28]
  GI50: 0.623 µM
  TGI: > 50 µM
[29]
  GI50: 2.74 µM
  TGI: > 50 µM
[30]
  GI50: 1.37 µM
  TGI: > 50 µM
[31]
  GI50: 0.962 µM
  TGI: 2.65 µM
[32]
  GI50: 1.17 µM
  TGI: > 50 µM
[33]
  GI50: 2.24 µM
  TGI: > 50 µM
[34]
  GI50: 0.289 µM
  TGI: > 50 µM
[35]
  GI50: 1.67 µM
  TGI: 11.3 µM
[36]
  GI50: 2.25 µM
  TGI: > 50 µM
[37]
  GI50: 1.23 µM
  TGI: > 50 µM
[38]
  GI50: 6.42 µM
  TGI: > 50 µM
[39]
  GI50: 0.103 µM
  TGI: > 50 µM
[40]
  GI50: 0.225 µM
  TGI: > 50 µM
[41]
  GI50: 0.513 µM
  TGI: > 50 µM
[42]
  GI50: 0.159 µM
  TGI: > 50 µM
[43]
  GI50: 0.605 µM
  TGI: 5.57 µM
[44]
  GI50: 0.784 µM
  TGI: 3.86 µM
[45]
  GI50: 0.247 µM
  TGI: 3.56 µM
[46]
  GI50: 1.06 µM
  TGI: 4.98 µM
[47]
  GI50: 0.231 µM
  TGI: > 50 µM
[48]
  GI50: 0.905 µM
  TGI: 2.97 µM
[49]
  GI50: 0.176 µM
  TGI: 4.37 µM
[50]
  GI50: 1.26 µM
  TGI: > 50 µM
[51]
  GI50: 2.25 µM
  TGI: > 50 µM
[52]
  GI50: 1.93 µM
  TGI: > 50 µM
[53]
  GI50: 0.953 µM
  TGI: 4.54 µM
[54]
  GI50: 2 µM
  TGI: > 50 µM
[55]
  GI50: 2.8 µM
  TGI: > 50 µM
[56]
  GI50: 3.68 µM
  TGI: > 50 µM

## N#Cc1nc(-c2ccccc2)oc1S(=O)(=O)N1CCN(CCc2ccccn2)CC1
[1]
  GI50: 12.3 µM
  TGI: 32.7 µM
[2]
  GI50: 12.5 µM
  TGI: 26 µM
[3]
  GI50: 13.5 µM
  TGI: 27 µM
[4]
  GI50: 12.4 µM
  TGI: 29.2 µM
[5]
  GI50: > 100 µM
  TGI: > 100 µM
[6]
  GI50: 17.3 µM
  TGI: 61.9 µM
[7]
  GI50: 2.23 µM
  TGI: 6.92 µM
[8]
  GI50: 1.41 µM
  TGI: 5.19 µM
[9]
  GI50: 2.58 µM
  TGI: 7.78 µM
[10]
  GI50: 19.3 µM
  TGI: 94.5 µM
[11]
  GI50: 13.5 µM
  TGI: 36.4 µM
[12]
  GI50: 12.3 µM
  TGI: 24.8 µM
[13]
  GI50: 1.83 µM
  TGI: 10.2 µM
[15]
  GI50: 1.55 µM
  TGI: 4.85 µM
[16]
  GI50: 30.4 µM
  TGI: > 100 µM
[57]
  GI50: 1.67 µM
  TGI: 3.22 µM
[17]
  GI50: 2.64 µM
  TGI: 9.81 µM
[18]
  GI50: 1.86 µM
  TGI: 5.87 µM
[19]
  GI50: 3.99 µM
  TGI: 13.7 µM
[20]
  GI50: 15.1 µM
  TGI: 47.9 µM
[21]
  GI50: 10.4 µM
  TGI: 24.2 µM
[22]
  GI50: 1.18 µM
  TGI: 2.41 µM
[23]
  GI50: 3.36 µM
  TGI: 12.7 µM
[24]
  GI50: 4.08 µM
  TGI: 16.7 µM
[25]
  GI50: 2.16 µM
  TGI: 8.35 µM
[26]
  GI50: 16.7 µM
  TGI: 32.4 µM
[27]
  GI50: 1.54 µM
  TGI: 3.02 µM
[28]
  GI50: 1.87 µM
  TGI: 4.41 µM
[29]
  GI50: 2.21 µM
  TGI: 6.09 µM
[30]
  GI50: 2.29 µM
  TGI: 9.51 µM
[31]
  GI50: 2.9 µM
  TGI: 9.42 µM
[32]
  GI50: 1.72 µM
  TGI: 3.44 µM
[33]
  GI50: 1.67 µM
  TGI: 3.09 µM
[34]
  GI50: 0.562 µM
  TGI: 7.78 µM
[35]
  GI50: 29.2 µM
  TGI: 87.2 µM
[36]
  GI50: 20.5 µM
  TGI: 57.9 µM
[37]
  GI50: 4.58 µM
  TGI: 17.5 µM
[38]
  GI50: 15.5 µM
  TGI: 34.4 µM
[39]
  GI50: 7.32 µM
  TGI: 19.7 µM
[41]
  GI50: 1.04 µM
  TGI: 2.36 µM
[42]
  GI50: 14 µM
  TGI: 49.9 µM
[43]
  GI50: 2.75 µM
[44]
  GI50: 1.89 µM
  TGI: 3.74 µM
[45]
  GI50: 1.87 µM
  TGI: 3.69 µM
[46]
  GI50: 9.85 µM
  TGI: 23.2 µM
[47]
  GI50: 0.985 µM
  TGI: 2.7 µM
[48]
  GI50: 4.56 µM
  TGI: 22.3 µM
[49]
  GI50: 1.28 µM
  TGI: 2.61 µM
[50]
  GI50: 12.3 µM
  TGI: 26.7 µM
[51]
  GI50: 23.3 µM
  TGI: 68.2 µM
[52]
  GI50: 10.5 µM
  TGI: 35.9 µM
[53]
  GI50: 14.2 µM
  TGI: 28.9 µM
[58]
  GI50: 1.22 µM
  TGI: 2.69 µM
[54]
  GI50: 20.8 µM
  TGI: 58.9 µM
[55]
  GI50: 24.6 µM
  TGI: > 100 µM
[56]
  GI50: 2.91 µM
  TGI: 9.94 µM
